Reference: patent EP1064284B1, “HYPNOTIC BETA-CARBOLINE DERIVATIVES, PROCESS FOR THEIR PREPARATION AND THEIR USE AS MEDICINAL PRODUCTS” (priority 1998, dated 1999)
“Also recorded” adds a separate entry of the source. Read-outs that look alike come from different tables or passages of the source.

What was measured:
[1] = Stability in acidic medium (hydrolysis of cycle A in pH buffers, HPLC); assay type: physicochemical; conditions: for Hydrolysis rate (%) pH=1: pH=1 buffer; for Hydrolysis rate (%) pH=1 / Hydrolysis rate (%) pH=2 / Hydrolysis rate (%) pH=3 / Hydrolysis rate (%) pH=7 (reference): 30 µM in 5 ml, stirred 15 minutes at 37°C; for Hydrolysis rate (%) pH=2: pH=2 buffer; for Hydrolysis rate (%) pH=3: pH=3 buffer; for Hydrolysis rate (%) pH=7 (reference): pH=7 (reference) buffer
Method: In order to study the influence of R8 group on the stability of cycle A when comparing compounds EXAMPLE A and EXAMPLE B (R8 = hydrogen atom) to compounds of Example 1, Example 4, Example 7, Example 8 and Example 11, 30 µM of each of these compounds were dissolved into 5 ml of pH=1 or pH=2 or pH=3 or pH=7 (reference) buffer. Solutions were stirred for 15 minutes at 37°C. Subsequent measurements of compounds amounts non hydrolyzed were measured using a high performance liquid chromatography method. [drawing 18] Table I :
Compounds n°1, 4, 7, 8 and 11 are quite stable from pH=2, since less than 27 per cent of these compounds are hydrolysed at pH≥2.

[2] = Absolute oral bioavailability (oral/IV) in Beagle dogs; assay type: in vivo
[3] = test system: Beagle dogs; assay: Hypnotic activity: effects on wakefulness / sleep states in Beagle dogs (EEG/EMG/EOG polygraph); assay type: in vivo; conditions: for Mean (± S.D.) duration of stages in 8 dogs (minutes) Drowsy / Mean (± S.D.) duration of stages in 8 dogs (minutes) REM / Mean (± S.D.) duration of stages in 8 dogs (minutes) SWS / Mean (± S.D.) duration of stages in 8 dogs (minutes) Sleep / Mean (± S.D.) duration of stages in 8 dogs (minutes) Wake / Mean (± S.D.) latencies after administration (minutes) Drowsy / Mean (± S.D.) latencies after administration (minutes) REM / Mean (± S.D.) latencies after administration (minutes) SWS: 120 minutes observation; for hypnotic effect in Beagle dogs (in words): oral
Method: Beagle dogs are kept in a metal cage, connected to 2 Schwartzer ED 24 Polygraph equipped with BRAINLAB® software, through a flexible cable. Test and control products are administered via the oral or intravenous routes by means of gastric tubes. Records are scored in 30 seconds epochs for active wake, drowsy, slow wave sleep (light sleep + deep sleep) and REM sleep. These criteria are according to SHELTON et al.( in SHELTON J., NISHINO S., VAUGHT J., DEMENT W.C. and MIGNOT E. Comparative effects of modafinil and amphetamine on daytime sleepiness and cataplexy of narcoleptic dogs. Sleep 19(1); 29-38, 1996.), based upon frequency and amplitude patterns of EEG cortical tracing (fronto-frontal), EMG (upper neck muscles) and EOG (bilateral). Behaviour is also continuously monitored for each observation period of 120 minutes. Prior acclimatisation of the dogs take 5 days; and, to mimic similar stress caused by gastric tubing, a mixture water/PEG (50/50; V/V) was administered orally together with intravenous boluses. • Wake : includes all episodes with low voltage mixed frequency tracing in which the EMG is not inhibited. […] Synchronous waves at 4 - 7 Hz and 50 - 100 µV appear on a background of low voltage fast-wave activity. […] EEG patterns are of higher amplitude than in the previous stage and sleep spindles ( 10 - 14 Hz) and / or K complexes must be present in light sleep, as EOG show slow eye movements or no movement. Deep sleep is scored when slow delta waves (< 4 Hz) constitute 20 p. cent of an epoch or more during deep sleep. • REM : rapid eye movement sleep is scored when dogs lay down, eyes closed with intermittent apparent fast muscle twitches. A low voltage mixed frequency EEG tracing is observed together with rapid eye movements and a drop in EMG activity.
Repartition and duration of wakefulness / sleep states in Beagle dogs have been measured after oral (and intravenous route for compoundof EXAMPLE 1) administrations of Placebo (vehicle = 10 ml of mixture ethanol / PEG 400 / water; 10 / 40 /50; V/V/V) compounds of Example 1, Example 4 and Example 7.
Results are presented in Tables II and III as Durations and Latencies of each stage.

[4] = dog, in vivo, Beagle dogs, fasting conditions, oral relative to intravenous route, read-out: Absolute bioavailability oral/IV in Beagle dogs (fasting conditions) 1 < gastric pH < 2

Row | Structure (SMILES) | Hydrolysis rate (%) pH=1 [1] [%] | Hydrolysis rate (%) pH=2 [1] [%] | Hydrolysis rate (%) pH=3 [1] [%] | Hydrolysis rate (%) pH=7 (reference) [1] [%] | per cent of compounds hydrolysed at pH≥2 [1] | bioavailability ([2]; beagle, dog, in vivo) [%] | hypnotic effect in Beagle dogs (in words) [3] | other results
1 | CCC1CCC(=O)N2CCc3c([nH]c4ccc(OC)cc34)C12 (stereo not shown) [Example 8, 9-methoxy-1-ethyl-1,2,3,4,6,7,12,12b-octahydroindolo [2,3-a] quinolizin-4-one] | 0 | 0 | 0 | 0 | less than 27 per cent | 100 |  | 
2 | COc1ccc2[nH]c3c(c2c1)CCN1C(=O)CCCC31 (stereo not shown) [EXAMPLE B, reference compound] | 95 | 95 | 90 | 0 |  |  |  | hydrolysis between pH=1 and pH=3 (in words) [1]: totally hydrolyzed; Absolute bioavailability oral/IV in Beagle dogs (fasting conditions) 1 < gastric pH < 2 ([2]; Beagle dogs, fasting conditions, oral relative to intravenous route): <5%; bioavailability [2, 4]: < 5%
3 | COc1ccc2[nH]c3c(c2c1)CCN1C(=S)CCC(c2ccccc2)=C31 [Example 11, 9-methoxy-1-phenyl-2,3,4,6,7,12-hexahydroindolo [2,3-a] [beta]quinolizin 4-thione] | 26.0 | 27.0 | 30.0 | 0 | less than 27 per cent |  |  | 
4 | COc1ccc2[nH]c3c(c2c1)CCN1C(=O)CCC(c2ccccc2)=C31 [Example 4, 9-methoxy-1-phenyl-2,3,4,6,7,12-hexahydroindolo[2,3-a] quinolizin-4-one] | 0 | 0 | 0 | 0 | less than 27 per cent | > 20 | significant hypnotic effect; also recorded: potent hypnotic activity | Absolute bioavailability oral/IV in Beagle dogs (fasting conditions) 1 < gastric pH < 2 ([2]; beagle, dog, in vivo): >20%; Mean (± S.D.) duration of stages in 8 dogs (minutes) Drowsy ([3]; 10 µmol/Kg oral, Table III): 10.4 (3.9) minutes; Mean (± S.D.) duration of stages in 8 dogs (minutes) REM ([3]; 10 µmol/Kg oral, Table III): 4.4 (4.5) minutes; Mean (± S.D.) duration of stages in 8 dogs (minutes) SWS ([3]; 10 µmol/Kg oral, Table III): 31.5 (17.6) minutes; Mean (± S.D.) duration of stages in 8 dogs (minutes) Sleep ([3]; 10 µmol/Kg oral, Table III): 46.3 (21.3) minutes; Mean (± S.D.) duration of stages in 8 dogs (minutes) Wake ([3]; 10 µmol/Kg oral, Table III): 73.8 (21.3) minutes; Mean (± S.D.) latencies after administration (minutes) Drowsy ([3]; 10 µmol/Kg oral, Table III): 50.4 (19.8) minutes; Mean (± S.D.) latencies after administration (minutes) REM ([3]; 10 µmol/Kg oral, Table III): 93.1 (26.3) minutes; Mean (± S.D.) latencies after administration (minutes) SWS ([3]; 10 µmol/Kg oral, Table III): 58.1 (27.0) minutes
5 | COc1ccc2[nH]c3c(c2c1)CCN1C(=O)CCC=C31 [EXAMPLE A, reference compound] | 100 | 100 | 100 | 0 |  |  |  | hydrolysis between pH=1 and pH=3 (in words) [1]: totally hydrolyzed; bioavailability [2, 4]: < 1%
6 | CCC1=C2c3[nH]c4ccc(OC)cc4c3CCN2C(=O)CC1 [Example 1, 9-methoxy-1-ethyl-2,3,4,6,7,12-hexahydroindolo [2,3-a] quinolizin-4-one] | 79.5 | 14.5 | 8.7 | 0 | less than 27 per cent | > 35 | significant hypnotic effect; also recorded: potent hypnotic activity | Absolute bioavailability oral/IV in Beagle dogs (fasting conditions) 1 < gastric pH < 2 ([2]; beagle, dog, in vivo): >35%; Mean (± S.D.) duration of stages in 8 dogs (minutes) REM ([3]; 2.5 µmol/Kg IV): 3.8 (3.9) minutes; Mean (± S.D.) latencies after administration (minutes) REM ([3]; 2.5 µmol/Kg IV): 79.9 (25.4) minutes; Mean (± S.D.) duration of stages in 8 dogs (minutes) REM ([3]; 2.5 µmol/Kg oral): 3.3 (3.4) minutes; Mean (± S.D.) latencies after administration (minutes) REM ([3]; 2.5 µmol/Kg oral): 82.9 (32.8) minutes; Mean (± S.D.) duration of stages in 8 dogs (minutes) REM ([3]; 5 µmol/Kg oral, Table II): 3.1 (3.7) minutes; Mean (± S.D.) latencies after administration (minutes) REM ([3]; 5 µmol/Kg oral, Table II): 79.3 (33.3) minutes; Mean (± S.D.) duration of stages in 8 dogs (minutes) REM ([3]; 10 µmol/Kg oral, Table II): 2.4 (3.5) minutes; Mean (± S.D.) latencies after administration (minutes) REM ([3]; 10 µmol/Kg oral, Table II): 101.9 (27.3) minutes
7 | CCC1=C2c3[nH]c4ccc(OC)cc4c3CCN2C(=S)CC1 [Example 7, 9-methoxy-1-ethyl-2,3,4,6,7,12-hexahydroindolo[2,3-a] quinolizine-4-thione] | 17.0 | 13.0 | 5.4 | 0 | less than 27 per cent |  | significant hypnotic effect; also recorded: potent hypnotic activity | Mean (± S.D.) duration of stages in 8 dogs (minutes) Drowsy ([3]; 5.0 µmol/Kg oral, Table III): 13.0 (8.6) minutes; Mean (± S.D.) duration of stages in 8 dogs (minutes) REM ([3]; 5.0 µmol/Kg oral, Table III): 4.4 (6.1) minutes; Mean (± S.D.) duration of stages in 8 dogs (minutes) SWS ([3]; 5.0 µmol/Kg oral, Table III): 18.9 (14.7) minutes; Mean (± S.D.) duration of stages in 8 dogs (minutes) Sleep ([3]; 5.0 µmol/Kg oral, Table III): 35.1 (25.8) minutes; Mean (± S.D.) duration of stages in 8 dogs (minutes) Wake ([3]; 5.0 µmol/Kg oral, Table III): 83.7 (25.1) minutes; Mean (± S.D.) latencies after administration (minutes) Drowsy ([3]; 5.0 µmol/Kg oral, Table III): 59.0 (20.0) minutes; Mean (± S.D.) latencies after administration (minutes) REM ([3]; 5.0 µmol/Kg oral, Table III): 91.1 (28.1) minutes; Mean (± S.D.) latencies after administration (minutes) SWS ([3]; 5.0 µmol/Kg oral, Table III): 74.1 (26.3) minutes
